What was measured:
human PGC-1β promoter = human PGC-1β promoter luciferase reporter (phPGC1β (1.0) Luc) in L6 cells; type: cell-based; conditions: final concentration of 1 μmol/L to 10 μmol/L, 24 hours
Description: phPGC1β (1.0) Luc plasmid constructed in Example 9, in accordance with the following procedures. L6 cells were cultivated in a tissue culture dish having a diameter of 10 cm to become 80% confluent. The cells were cotransfected with 5 μg of the phPGC1β (1.0) Luc plasmid and 1 μg of plasmid pCH110 (Pharmacia Biotech) using a regent for transfection (FuGENE™ T6, Roche, Cat. No. 1815091). In this connection, the plasmid pCH110 containing a β-galactosidase gene regulated by a β-actin promoter was used to standardize an efficiency of transfection. After 24 hours from the transfection, the cells were transferred to a 96-well tissue culture dish, and further cultured for 6 hours. Since it was reported that the combination of forskolin and dexamethasone induced an expression of endogenous PGC-1 in hepatocytes [J. Biol. Chem., 278: 30843 (2003)], the cells were treated with 10 μmol/L (final concentration) forskolin and 1 μmol/L dexamethasone [solvent=dimethyl sulfoxide (DMSO)] for 24 hours. After the treatment, the cells were lysed with a solution for cell lysis (LCβ; Toyo Ink, Japan), and a luciferase activity therein was measured using a PicaGene luminescence kit (Toyo Ink, Japan, 309-04321). In this connection, the activity was measured 3 times per group, and each experiment was repeated at least twice, to confirm the reproducibility. […]

differentiated L6 cells = test: activity of glucose uptake (2-deoxy-D-[U-14C] glucose) in differentiated L6 cells; type: cell-based, rat; conditions: compound at 1 μmol/L to 10 μmol/L for 24 hours, FIG. 5
Description: A tissue into which the largest amount of glucose can be incorporated in a living body is muscle. In this example and the following examples, a rat myoblast L6 was used to detect an activity of glucose uptake in vitro. L6 cells (ATCC, CRL-1458) were maintained in a Dulbecco's modified Eagle's medium (GIBCO BRL, USA, 11995-065) supplemented with 10% fetal bovine serum (JRH BIOSCIENCES, Cat. No. 12303-500M), and cultured in a humid atmosphere containing 5% CO2 at 37° C. When the L6 cells were confluent, the medium was changed to a Dulbecco's modified Eagle's medium supplemented with 2% horse serum (GIBCO, Cat. No. 16050), and further cultured for 5 days to perform an induction of differentiation.
The cells overexpressing human PGC-1β or human PGC-1α, prepared in accordance with the procedures described in Example 4, were used to measure an activity of glucose uptake. After 48 hours from the infection, the cells were rinsed with 1 mL of a KRP buffer ([…], 4.7 mmol/L KCl, 1.25 mmol/L CaCl2.2H2O, 1.25 mmol/L MgSO4.7H2O, and 5 mmol/L Na2HPO4.12H2O), and further cultured in 500 μL of KRP for 1 hour. […] Each lysate was mixed with 2 mL of a liquid scintillator (AQUASOL 2, PERKINELMER, Cat. No. 6NE9529), and an amount of radiolabeled compound (radioactivity, CPM) incorporated into the cells was measured using a liquid scintillation counter (PACKARD, B2500TR). […]

Nc1cccc(-c2nc3cc(C(=O)c4ccccc4)ccc3[nH]2)c1 [compound A, 2-(3-aminophenyl)-5-benzoyl-(1H)-benzimidazole]
activating activity of the human PGC-1β promoter (reporter luciferase activity) in comparison with absence of the compound (human PGC-1β promoter): ≥ 2 times | activity of glucose uptake in muscle cells (differentiated L6 cells): significantly activated glucose uptake

Reference: US20080070249A1, “Novel Activating Agent of Glucose Uptake and a Screening Method Therefor” (ASTELLAS PHARMA INC., priority 2005, published 2008)
